Test results taken from patent publication US20090004683A1, “Indicator Agent for Noninflammatory Stress Response and Use Thereof” (priority 2004, published 2009).

Columns and labels:
IL-18 [1] = experiment: Plasma IL-18 level in restraint stress mice (ELISA); assay type: in vivo, mouse; settings: given i.p. during restraint (Ac-YVAD-CHO 200 μM/50 μl, Z-FA-fmk 100 μM/50 μl, SB-203580 100 μg, SOD-1 20 U, DPI 30 μg)
Procedure: (§1) For restraint stress, each mouse was kept in a restrainer (a round plastic tube 27 mm in diameter) for 1, 3 or 6 hours, and IL-18 levels were measured. Regarding the analysis of IL-6, each mouse was restrained as described above, and then housed in the starting cage for 6 hours, after which a measurement was performed.
(§2) After restraint, each mouse was anesthetized with diethyl ether, and blood was drawn into an EDTA-containing tube. Plasma was separated by centrifugation at 4° C. and 10000×g for 10 minutes, and stored at −80° C. IL-18 and IL-6 were analyzed by ELISA using Quantikine™ immunoassay kit (R&D Systems) and OptEIA™ (BD-Pharmingen), respectively.
(§3) The anti-ACTH antiserum (50 μl, 1:1), dexamethasone (1 ng/50 μl PBS(−)) or the anti-IL-18 antibody (50 μl, 1:1) was administered intraperitoneally to each mouse; after 10 minutes elapsed, the animal was kept in a restraint tube for 6 hours. Synthetic ACTH (250 μg/50 μl PBS(−)) was injected to the left leg; after 6 hours elapsed, the mice were subjected to the experiment.
(§4) Each mouse was kept in a restrainer for 1 hour, and Ac-YVAD-CHO (200 μM/50 μl PBS(−)), Z-FA-fmk (100 μM/50 μl PBS(−)) and SB-203580 (100 μg/50 μl PBS(−) per mouse) were administered intraperitoneally. 1 and 3 hours after the start of restraint, SOD-1 (20 U) and DPI (30 μg) were administered intraperitoneally to the mouse, and samples were analyzed by Western blotting.

caspase-1 [2] = target: T1, caspase-1 (Mus musculus, UniProt P29452); experiment: Caspase-1 activity in the adrenal of restraint stress mice (Ac-YVAD-MCA fluorescent substrate); assay type: in vivo; settings: given i.p. during restraint
T1 construct: from tissue; host or cells: mouse adrenal (homogenate)
T1 sequence (P29452 119-296 limits assumed): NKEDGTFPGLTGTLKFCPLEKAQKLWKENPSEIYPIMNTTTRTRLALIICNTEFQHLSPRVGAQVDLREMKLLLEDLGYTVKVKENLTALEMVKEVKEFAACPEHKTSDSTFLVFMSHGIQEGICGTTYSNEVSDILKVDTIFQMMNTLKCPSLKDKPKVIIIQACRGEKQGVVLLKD
T1 sequence (P29452 315-402 limits assumed): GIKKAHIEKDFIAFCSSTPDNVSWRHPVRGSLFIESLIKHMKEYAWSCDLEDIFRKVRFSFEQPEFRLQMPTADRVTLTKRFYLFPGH
Procedure: as §4
Caspase-1 activity in the adrenal was measured using a caspase assay kit (manufactured by BD-Pharmingen). Describing briefly, a homogenate of adrenal tissue was incubated with Ac-YVAD-MCA (acetyl-L-tyrosyl-L-valyl-L-alanyl-L-aspartic acid 4-methyl-coumaryl-7-amide), which is a fluorescent substrate for caspase-1, and the MCA leaving from the aforementioned substrate was measured using a fluorescence plate reader (excitation wavelength 380 nm, irradiation wavelength 420-460 nm).

procaspase-11 = experiment: Procaspase-11 protein in the adrenal of restraint stress mice (Western blotting); assay type: in vivo, mouse; settings: given i.p. during restraint
Procedure: as §4
(§5) Western blot analysis of IL-18 and phosphorylated P38MAP kinase in adrenal tissue was performed as described below. The adrenal tissue was homogenized in an immunoprecipitation (IP) buffer solution (50 mM Tris pH 7.4, 150 mM NaCl, 0.5% NP-40 and 0.5% sodium deoxycholate) containing a protease inhibitor mixture (manufactured by Roche Diagnostics) using a Polytron homogenizer. […] The aforementioned membrane was incubated with an antibody (IL-18, phosphorylated (Thr180/Tyr182) P38 MAP kinase, caspase-1 or caspase-11), and the reacted protein was detected using an ECL plus system (manufactured by Amersham biosciences). Procaspase-11 and activated P38 MAP kinase were quantified using a Science Lab 99 image analysis system (manufactured by Fujifilm).

glyoma cell line C6 = settings: cited from earlier work
IL-18 precursor = experiment: IL-18 (precursor) level in the adrenal of restraint stress mice; assay type: in vivo, mouse; settings: given i.p. during restraint
Procedure: as §1, §3, §4
Western blot analysis of IL-18 and phosphorylated P38MAP kinase in adrenal tissue was performed as described below. […] Procaspase-11 and activated P38 MAP kinase were quantified using a Science Lab 99 image analysis system (manufactured by Fujifilm).

[3] = system: phosphorylated (Thr180/Tyr182) P38 MAP kinase; experiment: Phosphorylated P38MAP kinase in the adrenal of restraint stress mice (Western blotting); assay type: in vivo, mouse; settings: Western blotting, FIG. 3D
Procedure: as §4
Western blot analysis of IL-18 and phosphorylated P38MAP kinase in adrenal tissue was performed as described below. The adrenal tissue was homogenized in an immunoprecipitation (IP) buffer solution (50 mM Tris pH 7.4, 150 mM NaCl, 0.5% NP-40 and 0.5% sodium deoxycholate) containing a protease inhibitor mixture (manufactured by Roche Diagnostics) using a Polytron homogenizer. The homogenate obtained (100 μg protein) was pre-clarified using protein A/G agarose (Exalpha Biologicals, Inc.), incubated with the anti-mouse IL-18 monoclonal antibody or the anti-phosphorylated (Thr180/Tyr182) P38 MAP kinase antibody and protein A/G agarose (50 μl), and centrifuged (at 13000×g for 25 minutes, 4° C.). The precipitate was boiled, and the adrenal protein was recovered, electrophoresed in 10-20% SDS-polyacrylamide gradient gel, and electrically transferred to a Hybond ECL (manufactured by Amersham) nitrocellulose membrane. The aforementioned membrane was incubated with an antibody (IL-18, phosphorylated (Thr180/Tyr182) P38 MAP kinase, caspase-1 or caspase-11), and the reacted protein was detected using an ECL plus system (manufactured by Amersham biosciences). Procaspase-11 and activated P38 MAP kinase were quantified using a Science Lab 99 image analysis system (manufactured by Fujifilm).

[4] = system: phosphorylated P38MAP kinase; experiment: Immunohistochemistry of phosphorylated P38MAP kinase in adrenal cortex of stress-loaded mice; assay type: in vivo, mouse; settings: FIG. 3F
Procedure: The adrenal was fixed in formalin, embedded in paraffin, and cut into 4-μm sections. The aforementioned tissue sections were incubated with an antibody (P38 MAP kinase, caspase-11, caspase-1 (these three were diluted 200 fold) or IL-18 (diluted 400 fold)). Using a horseradish peroxidase-conjugated secondary antibody (manufactured by Santa Cruz) and diaminobenzidin (DBA), color development was performed. For control, sections without the primary antibody and sections derived from a mouse without stress were used.

IL-6 = experiment: Plasma IL-6 level in stress-loaded wild type mice (ELISA); assay type: in vivo, mouse; settings: stress-loaded WT mice; FIG. 5B
Procedure: as §1, §2
Using IL-18-deficient mice, the relationship between IL-6, which is another stress-related cytokine, and IL-18, was examined. Without stress, IL-6 was undetectable in WT and IL-18 KO, but after 3 hours of stress loading, the IL-6 level was 230 pg/ml in WT and 25 pg/ml in IL-18 KO (FIG. 5A). After liberation from the stress, plasma IL-6 was kept at about 80 pg/ml in WT, but decreased to 5 pg/ml in IL-18 KO (FIG. 5A). Treatment with YVAD-CHO, SOD and anti-IL-18 antibody 70% inhibited the stress-induced increase in plasma IL-6 level in WT (FIG. 5B).

IL-18 [5] = experiment: IL-18 in plasma and adrenal after administration of synthetic ACTH; assay type: in vivo, mouse; settings: 250 μg injected to the left leg, after 6 hours, no restraint
Procedure: as §2, §3

caspase-1 [6] = experiment: Procaspase-1 in the adrenal after ACTH administration (Western blotting); assay type: in vivo, mouse; settings: FIG. 2A lane 2
Procedure: as §3, §5

[7] = system: Primary culture human skin keratinocytes; experiment: IL-18 release from keratinocytes with paraquat stimulation; assay type: cell-based
Procedure: Primary culture human skin keratinocytes (keratinocytes) were cultured in a basal medium for keratinocytes contained in petri dishes for cell culture 6 cm in diameter at 1.0-2.0×10^6/dish. This was cultured in the aforementioned medium containing 1 μM of paraquat, which is an active oxygen generator, for 15 minutes, after which the medium was exchanged with a paraquat-free medium, and the cells were further cultured for 1 hour, after which the medium was collected, and the concentration of IL-18 protein in the medium was measured.

[8] = system: Primary culture human skin keratinocytes; experiment: IL-18 release from keratinocytes with UV-B ray irradiation; assay type: cell-based; settings: 100 mJ UV-B, SOD 1-20 U/ml or water-soluble vitamin E 100 nM-10 mM/ml
Procedure: Primary culture human skin keratinocytes (keratinocytes: purchased from CAMBREX Company) were cultured in a basal medium for keratinocytes contained in petri dishes for cell culture 6 cm in diameter at 1.0-2.0×10^6/dish. This was irradiated with 100 mJ of ultraviolet B rays (UV-B rays), after which the cells were cultured for 1 hour, after which the medium was collected, and the concentration of IL-18 protein in the medium was measured. Also, after the UV-B ray treatment, the cells were cultured in a medium containing SOD (1, 2.5, 5, 10, 20 U/ml), which is an active oxygen eliminator, or water-soluble vitamin E (100 nM, 1, 2.5, 5, 10 mM/ml), and the concentration of IL-18 protein in the medium was measured. In the keratinocytes, the activation and release of IL-18 by the active oxygen molecular species were observed. Furthermore, these were suppressed by SOD, which is an active oxygen eliminator, or by vitamin E, which neutralizes active oxygen, dose-dependently (FIGS. 7C and 7D).

Brain microglia = experiment: IL-18 release from microglia with paraquat stimulation; assay type: cell-based, mouse
Procedure: Brain microglia isolated from the mouse neonatal brain by the method of Hassan et al. (Hassan N F, Rifat S, Campbell D E, McCawley L J, Douglas S D. J. Leukoc Biol. 1991 July; 50(1):86-92) were cultured at 1.5-2.0×10^6/ml. This was cultured in Dulbecco's minimum essential medium containing 100 nM of paraquat, which is an active oxygen generator, for 1 hour, after which the medium was exchanged with a paraquat-free medium. After further cultivation for 3 hours, the medium was collected, and the concentration of IL-18 protein in the medium was measured.

Brain astrocytes = experiment: IL-18 release from astrocytes with paraquat stimulation; assay type: cell-based, mouse
Procedure: Brain astrocytes isolated from the mouse neonatal brain by the method of Yang et al. (Yang P, Hernandez M R. Brain Res Brain Res Protoc. 2003 October; 12(2):67-76) were prepared at 1.5-2.0×10^6/ml. This was cultured in Dulbecco's minimum essential medium containing 100 nM of paraquat, which is an active oxygen generator, for 1 hour, after which the medium was exchanged with a paraquat-free medium. The cells were further cultured for 3 hours, after which the medium was collected, and the concentration of IL-18 protein in the medium was measured.

Abdominal macrophages = experiment: IL-18 release from macrophages with paraquat stimulation; assay type: cell-based, mouse; settings: 100 nM paraquat 15 minutes, SOD 1-20 U/ml
Procedure: Abdominal macrophages isolated from mice by the method of Hamilton et al. (Hamilton T A, Weiel J E, Adams D O., J. Immunol. 1984 May; 132(5):2285-90) were cultured in Dulbecco's minimum essential medium at 1.0-2.0×10^5/dish. The medium was exchanged with the aforementioned medium containing 100 nM of paraquat, which is an active oxygen generator, and the cells were cultured for 15 minutes, after which the medium was exchanged with a paraquat-free medium, and the cells were further cultured for 3 hours, after which the medium was collected, and the concentration of IL-18 protein in the medium was measured.

Synovial membrane tissue = experiment: IL-18 release from synovial membrane tissue with paraquat stimulation; assay type: cell-based, human; settings: synovial membrane tissue of articular rheumatism patient, 100 nM paraquat 15 minutes; SOD 1-20 U/ml
Procedure: Synovial membrane tissue collected from the articular synovial membrane at a lesion site of an articular rheumatism patient was subjected to tissue culture in an RPMI-1640 medium containing 10% fetal bovine serum by the method of Tanaka et al. (Tanaka M, Harigai M, Kawaguchi Y, Ohta S, Sugiura T, Takagi K, Ohsako-Higami S, Fukasawa C, Hara M, Kamatani N., J. Rheumatol. 2001 August; 28(8):1779-87). The medium was exchanged with the aforementioned medium containing 100 nM of paraquat, which is an active oxygen generator, and the cells were cultured for 15 minutes, after which the medium was exchanged with a paraquat-free medium, and the cells were further cultured for 1 hour, after which the medium was collected, and the concentration of IL-18 protein in the medium was measured.

[9] = system: Primary culture human renal proximal tubular epithelial cells; experiment: IL-18 release from renal tubular epithelial cells with paraquat stimulation; assay type: cell-based
Procedure: Primary culture human renal proximal tubular epithelial cells (purchased from CAMBREX Company) were cultured in a basal medium for renal tubular cells: contents 10 μg/ml hEGF (recombinant human epithelial cell growth factor) 0.5 ml, 5 mg/ml insulin 0.5 ml, 0.5 mg/ml hydrocortisone 0.5 ml, FBS (fetal bovine serum) 2.5 ml, 0.5 mg/ml epinephrine 0.5 ml, 6.5 μg/ml triiodothyronine 0.5 ml, 10 mg/ml transferrin 0.5 ml, 50 mg/ml gentamycin, 50 μg/ml amphotericin-B 0.5 ml), in petri dishes for cell culture 6 cm in diameter at 1.0-2.0×10^6/dish. This was cultured in the aforementioned medium containing 100 nM of paraquat, which is an active oxygen generator, for 15 minutes, after which the medium was exchanged with the same but paraquat-free medium. After the cells were further cultured for 1 hour, the medium was collected, and the concentration of IL-18 protein in the medium was measured.

c1ccc2c(c1)[I+]c1ccccc1-2 [DPI, Diphenyleneiodonium chloride]
stress-induced increase in plasma IL-18 level (IL-18 [1]): suppressed

C[S+]([O-])c1ccc(-c2nc(-c3ccncc3)c(-c3ccc(F)cc3)[nH]2)cc1 (centres unmarked) [SB203580]
stress-induced increase in plasma IL-18 level (IL-18 [1]): lower than those in control mice
stress-induced increase in caspase-1 activity in the adrenal (caspase-1 [2]): lower than those in control mice
stress-induced increase in procaspase-11 protein (procaspase-11): inhibited
activation of caspase-1 subsequent to LPS (glyoma cell line C6): suppressed
induction of caspase-11 mRNA by LPS (glyoma cell line C6): suppressed

CC(=O)N[C@@H](Cc1ccc(O)cc1)C(=O)N[C@H](C(=O)N[C@@H](C)C(=O)N[C@H](C=O)CC(=O)O)C(C)C [YVAD-CHO, Ac-YVAD-CHO]
stress-induced increase in plasma IL-18 level (IL-18 [1]): effectively inhibited
IL-18 precursor protein level in the adrenal (IL-18 precursor): did not inhibit
stress-induced increase in caspase-1 activity in the adrenal (caspase-1 [2]): suppressed
phosphorylation of P38MAP kinase in the adrenal [3]: Neither YVAD-CHO nor Z-FA-fmk influenced
accumulation of phosphorylated P38MAP kinase in adrenal cortex [4]: did not influence
inhibition of the stress-induced increase in plasma IL-6 level (IL-6): 70%

CC(NC(=O)[C@H](Cc1ccccc1)NC(=O)OCc1ccccc1)C(=O)CF (some centres unmarked) [Z-FA-fmk]
stress-induced increase in plasma IL-18 level (IL-18 [1]): suppressed
stress-induced increase in caspase-1 activity in the adrenal (caspase-1 [2]): suppressed
phosphorylation of P38MAP kinase in the adrenal [3]: Neither YVAD-CHO nor Z-FA-fmk influenced
accumulation of phosphorylated P38MAP kinase in adrenal cortex [4]: did not influence

ACTH: Synthetic ACTH (1-24 amino acids) purchased from Peninsula Laboratories Inc. (SYSMEHFRWGKPVGKKRRPVKVYP; Corticotropin; UniProt P01189 138-161, looked up, fragment)
plasma IL-18 level after ACTH administration (IL-18 [5]; FIG. 1D): rose, but its degree was lower than that with stress loading
IL-18 level in the adrenal after ACTH administration (IL-18 [5]; FIG. 1E): rose to the same extent as in the case of stress loading
induction of caspase-1 in the adrenal (caspase-1 [6]): induced

vitamin E
activation and release of IL-18 into the medium [7]: suppressed
activation and release of IL-18 into the medium [8]: suppressed
activation and release of IL-18 into the medium (Brain microglia): suppressed
activation and release of IL-18 into the medium (Brain astrocytes): suppressed
activation and release of IL-18 into the medium (Abdominal macrophages): suppressed
activation and release of IL-18 into the medium (Synovial membrane tissue): suppressed
activation and release of IL-18 into the medium [9]: suppressed
